Measured values taken from patent US20070049564A1 (Wyeth, priority 2005, published 2007).
≈ marks a conversion by molar mass, not a printed value. Where two headings read alike, the source gives them in different places.

Assays:
E. coli GC 2236 = experiment: MIC, broth microdilution; details: Escherichia coli
E. coli GC 2231 = experiment: MIC, broth microdilution; details: Escherichia coli
E. coli GC 2235 = experiment: MIC, broth microdilution; details: Escherichia coli
E. coli GC 2232 = experiment: MIC, broth microdilution; details: Escherichia coli
E. coli GC 2234 = experiment: MIC, broth microdilution; details: Escherichia coli
E. coli GC 4559 = experiment: MIC, broth microdilution; details: Escherichia coli
S. typhimurium GC 2172 = experiment: MIC, broth microdilution; details: Salmonella enterica, TYPHIMURIUM
S. aureus GC 6466 = experiment: MIC, broth microdilution; details: Staphylococcus aureus
S. aureus GC 4536 = experiment: MIC, broth microdilution; details: Staphylococcus aureus
S. aureus GC 2216 = experiment: MIC, broth microdilution; details: Staphylococcus aureus
E. faecalis GC 4555 = experiment: MIC, broth microdilution; details: Enterococcus faecalis
E. faecalis GC 2242 = experiment: MIC, broth microdilution; details: Enterococcus faecalis
E. faecium GC 4556 = experiment: MIC, broth microdilution; details: Enterococcus faecium
S. pneumoniae* GC 4465 = experiment: MIC, broth microdilution; details: Streptococcus pneumoniae
S. pneumoniae+ GC 4465 = experiment: MIC, broth microdilution; details: Streptococcus pneumoniae
S. pyogenes GC 4563 = experiment: MIC, broth microdilution; details: Streptococcus pyogenes
S. agalactiae GC 4564 = experiment: MIC, broth microdilution; details: Streptococcus agalactiae
E. coli = experiment: Range of MIC for E. coli strains; details: Escherichia coli
Staph. = experiment: Range of MIC for Staph. strains, including MRSA; details: Staphylococcus aureus
Staph. aureus Smith = experiment: In vivo activity (oral, iv; ED50) against Staph. aureus Smith in mice
[1] = read-out: MINIMAL INHIBITORY CONCENTRATION MIC, pre-incubated in Human Serum
[2] = read-out: MINIMAL INHIBITORY CONCENTRATION MIC, pre-incubated in Mouse Serum
[3] = read-out: MINIMAL INHIBITORY CONCENTRATION MIC, pre-incubated in Water

MIC (E. coli GC 2236; GC2236, read-out: MINIMAL INHIBITORY CONCENTRATION MIC, pre-incubated in Human Serum): > 64 µg/mL
MIC (E. coli GC 2236; GC2236, read-out: MINIMAL INHIBITORY CONCENTRATION MIC, pre-incubated in Mouse Serum): 0.5 µg/mL (≈ 0.61 µM)
MIC (E. coli GC 2236; GC2236, read-out: MINIMAL INHIBITORY CONCENTRATION MIC, pre-incubated in Water): > 64 µg/mL
MIC (E. coli GC 2231; GC2231, read-out: MINIMAL INHIBITORY CONCENTRATION MIC, pre-incubated in Human Serum): > 64 µg/mL
MIC (E. coli GC 2231; GC2231, read-out: MINIMAL INHIBITORY CONCENTRATION MIC, pre-incubated in Mouse Serum): 0.5 µg/mL (≈ 0.61 µM)
MIC (E. coli GC 2231; GC2231, read-out: MINIMAL INHIBITORY CONCENTRATION MIC, pre-incubated in Water): > 64 µg/mL
MIC (E. coli GC 2235; GC2235, read-out: MINIMAL INHIBITORY CONCENTRATION MIC, pre-incubated in Human Serum): > 64 µg/mL
MIC (E. coli GC 2235; GC2235, read-out: MINIMAL INHIBITORY CONCENTRATION MIC, pre-incubated in Mouse Serum): 0.25 µg/mL (≈ 0.305 µM)
MIC (E. coli GC 2235; GC2235, read-out: MINIMAL INHIBITORY CONCENTRATION MIC, pre-incubated in Water): > 64 µg/mL
MIC (E. coli GC 2232; GC2232, read-out: MINIMAL INHIBITORY CONCENTRATION MIC, pre-incubated in Human Serum): > 64 µg/mL
MIC (E. coli GC 2232; GC2232, read-out: MINIMAL INHIBITORY CONCENTRATION MIC, pre-incubated in Mouse Serum): 0.5 µg/mL (≈ 0.61 µM)
MIC (E. coli GC 2232; GC2232, read-out: MINIMAL INHIBITORY CONCENTRATION MIC, pre-incubated in Water): > 64 µg/mL
MIC (E. coli GC 2234; GC2234, read-out: MINIMAL INHIBITORY CONCENTRATION MIC, pre-incubated in Human Serum): > 64 µg/mL
MIC (E. coli GC 2234; GC2234, read-out: MINIMAL INHIBITORY CONCENTRATION MIC, pre-incubated in Mouse Serum): 0.25 µg/mL (≈ 0.305 µM)
MIC (E. coli GC 2234; GC2234, read-out: MINIMAL INHIBITORY CONCENTRATION MIC, pre-incubated in Water): > 64 µg/mL
MIC (E. coli GC 4559; GC4559, read-out: MINIMAL INHIBITORY CONCENTRATION MIC, pre-incubated in Human Serum): > 64 µg/mL
MIC (E. coli GC 4559; GC4559, read-out: MINIMAL INHIBITORY CONCENTRATION MIC, pre-incubated in Mouse Serum): 0.5 µg/mL (≈ 0.61 µM)
MIC (E. coli GC 4559; GC4559, read-out: MINIMAL INHIBITORY CONCENTRATION MIC, pre-incubated in Water): > 64 µg/mL
MIC (S. typhimurium GC 2172; [1]): > 64 µg/mL
MIC (S. typhimurium GC 2172; [2]): 2 µg/mL (≈ 2.44 µM)
MIC (S. typhimurium GC 2172; [3]): > 64 µg/mL
MIC (S. aureus GC 6466; GC6466, read-out: MINIMAL INHIBITORY CONCENTRATION MIC, pre-incubated in Human Serum): 16 µg/mL (≈ 19.5 µM)
MIC (S. aureus GC 6466; GC6466, read-out: MINIMAL INHIBITORY CONCENTRATION MIC, pre-incubated in Mouse Serum): 0.5 µg/mL (≈ 0.61 µM)
MIC (S. aureus GC 6466; GC6466, read-out: MINIMAL INHIBITORY CONCENTRATION MIC, pre-incubated in Water): 64 µg/mL (≈ 78.1 µM)
MIC (S. aureus GC 4536; GC4536, read-out: MINIMAL INHIBITORY CONCENTRATION MIC, pre-incubated in Human Serum): 16 µg/mL (≈ 19.5 µM)
MIC (S. aureus GC 4536; GC4536, read-out: MINIMAL INHIBITORY CONCENTRATION MIC, pre-incubated in Mouse Serum): 1 µg/mL (≈ 1.22 µM)
MIC (S. aureus GC 4536; GC4536, read-out: MINIMAL INHIBITORY CONCENTRATION MIC, pre-incubated in Water): 32 µg/mL (≈ 39 µM)
MIC (S. aureus GC 2216; GC2216, read-out: MINIMAL INHIBITORY CONCENTRATION MIC, pre-incubated in Human Serum): 32 µg/mL (≈ 39 µM)
MIC (S. aureus GC 2216; GC2216, read-out: MINIMAL INHIBITORY CONCENTRATION MIC, pre-incubated in Mouse Serum): 0.5 µg/mL (≈ 0.61 µM)
MIC (S. aureus GC 2216; GC2216, read-out: MINIMAL INHIBITORY CONCENTRATION MIC, pre-incubated in Water): 64 µg/mL (≈ 78.1 µM)
MIC (E. faecalis GC 4555; GC4555, read-out: MINIMAL INHIBITORY CONCENTRATION MIC, pre-incubated in Human Serum): 8 µg/mL (≈ 9.76 µM)
MIC (E. faecalis GC 4555; GC4555, read-out: MINIMAL INHIBITORY CONCENTRATION MIC, pre-incubated in Mouse Serum): 0.5 µg/mL (≈ 0.61 µM)
MIC (E. faecalis GC 4555; GC4555, read-out: MINIMAL INHIBITORY CONCENTRATION MIC, pre-incubated in Water): 32 µg/mL (≈ 39 µM)
MIC (E. faecalis GC 2242; GC2242, read-out: MINIMAL INHIBITORY CONCENTRATION MIC, pre-incubated in Human Serum): 4 µg/mL (≈ 4.88 µM)
MIC (E. faecalis GC 2242; GC2242, read-out: MINIMAL INHIBITORY CONCENTRATION MIC, pre-incubated in Mouse Serum): 0.5 µg/mL (≈ 0.61 µM)
MIC (E. faecalis GC 2242; GC2242, read-out: MINIMAL INHIBITORY CONCENTRATION MIC, pre-incubated in Water): 16 µg/mL (≈ 19.5 µM)
MIC (E. faecium GC 4556; GC4556, read-out: MINIMAL INHIBITORY CONCENTRATION MIC, pre-incubated in Human Serum): 8 µg/mL (≈ 9.76 µM)
MIC (E. faecium GC 4556; GC4556, read-out: MINIMAL INHIBITORY CONCENTRATION MIC, pre-incubated in Mouse Serum): 0.5 µg/mL (≈ 0.61 µM)
MIC (E. faecium GC 4556; GC4556, read-out: MINIMAL INHIBITORY CONCENTRATION MIC, pre-incubated in Water): 16 µg/mL (≈ 19.5 µM)
MIC (S. pneumoniae* GC 4465; [1]): 1 µg/mL (≈ 1.22 µM)
MIC (S. pneumoniae* GC 4465; [2]): < 0.06 µg/mL
MIC (S. pneumoniae* GC 4465; [3]): 0.5 µg/mL (≈ 0.61 µM)
MIC (S. pneumoniae+ GC 4465; [1]): 2 µg/mL (≈ 2.44 µM)
MIC (S. pneumoniae+ GC 4465; [2]): 2 µg/mL (≈ 2.44 µM)
MIC (S. pneumoniae+ GC 4465; [3]): 2 µg/mL (≈ 2.44 µM)
MIC (S. pyogenes GC 4563; GC4563, read-out: MINIMAL INHIBITORY CONCENTRATION MIC, pre-incubated in Human Serum): < 0.06 µg/mL
MIC (S. pyogenes GC 4563; GC4563, read-out: MINIMAL INHIBITORY CONCENTRATION MIC, pre-incubated in Mouse Serum): < 0.06 µg/mL
MIC (S. pyogenes GC 4563; GC4563, read-out: MINIMAL INHIBITORY CONCENTRATION MIC, pre-incubated in Water): < 0.06 µg/mL
MIC (S. agalactiae GC 4564; GC4564, read-out: MINIMAL INHIBITORY CONCENTRATION MIC, pre-incubated in Human Serum): 2 µg/mL (≈ 2.44 µM)
MIC (S. agalactiae GC 4564; GC4564, read-out: MINIMAL INHIBITORY CONCENTRATION MIC, pre-incubated in Mouse Serum): < 0.06 µg/mL
MIC (S. agalactiae GC 4564; GC4564, read-out: MINIMAL INHIBITORY CONCENTRATION MIC, pre-incubated in Water): 2 µg/mL (≈ 2.44 µM)
MIC (E. coli; 20 h, read-out: Range of MIC, E. coli (Mouse Serum)): 0.25 to 2 µg/mL (≈ 0.305 to 2.44 µM)
MIC (E. coli; read-out: Minimum inhibitory concentration (MIC), E. coli (Human Serum)): > 64 µg/mL
MIC (E. coli; read-out: Minimum inhibitory concentration (MIC), E. coli (water)): > 64 µg/mL
MIC (E. coli; read-out: Range of MIC, E. coli (Water)): > 64 µg/mL
MIC (Staph.; MRSA, read-out: Range of MIC, Staph (Mouse Serum)): 0.5 to 2 µg/mL (≈ 0.61 to 2.44 µM)
MIC (Staph.; read-out: Minimum inhibitory concentration (MIC), Staph (Human Serum)): 4 to 64 µg/mL (≈ 4.88 to 78.1 µM)
SMILES: CN(C)c1cc(NC(=O)CN(C(=O)OCOC(=O)c2ccc(C(C)(C)C)cc2)C(C)(C)C)c(O)c2c1C[C@H]1C[C@H]3[C@H](N(C)C)C(O)=C(C(N)=O)C(=O)[C@@]3(O)C(O)=C1C2=O [Example 43, ({[(2-{[(5aR,6aS,7S,10aS)-9-(aminocarbonyl)-4,7-bis(dimethylamino)-1,8,10a,11-tetrahydroxy-10,12-dioxo-5,5a,6,6a,7,10,10a,12-octahydrotetracen-2-yl]amino}-2-oxoethyl)(tert-butyl)amino]carbonyl}oxy)methyl 4-tert-butylbenzoate]
ED50 (Staph. aureus Smith; Staphylococcus aureus, in Mus musculus, po, read-out: ED50 Staph Smith SOD): 12.8 mg/kg
ED50 (Staph. aureus Smith; iv, read-out: ED50 Staph Smith SIV): 0.83 mg/kg
